Counter-ions that a name gives are not always drawn.
Compound	melting point [°C]
Cl.Cn1c(=O)c2ccccc2n(CCCN2CCC(OC(c3ccccc3)c3ccccc3)CC2)c1=O	127 to 128
Cl.O=c1c2ccccc2n(CCCCN2CCC(OC(c3ccccc3)c3ccccc3)CC2)c(=O)n1C1CCCCC1	206 to 208
N#CCCCCn1c(=O)c2ccccc2n(CCCCN2CCC(OC(c3ccccc3)c3ccccc3)CC2)c1=O (as salt: hydrochloride) [Example 93, 2,4-Dioxo-1-[4-(4-diphenylmethoxypiperidino)butyl]-1,2,3,4-tetrahydroquinazoline-3-valeronitrile]	119 to 121
COC(=O)C(C)(C)c1ccc2c(c1)c(=O)[nH]c(=O)n2CCCCN1CCC(OC(c2ccccc2)c2ccccc2)CC1.Cl	223 to 225
O=c1[nH]c2ccccc2c(=O)n1CCCN1CCC(OC(c2ccccc2)c2ccccc2)CC1 [Example 79, 2,4-Dioxo-3-[3-(4-diphenylmethoxypiperidino)propyl]-1,2,3,4-tetrahydroquinazoline]	173 to 175
O=C(O)c1ccc2c(=O)[nH]c(=O)n(CCCCN3CCC(OC(c4ccccc4)c4ccccc4)CC3)c2c1 [Example 90, 2,4-Dioxo-1-[4-(4-diphenylmethoxypiperidino)butyl]-1,2,3,4-tetrahydroquinazoline-7-carboxylic acid]	177 to 179
O=c1[nH]c(=O)n(CCCCCN2CCC(OC(c3ccccc3)c3ccccc3)CC2)c2ccccc12 [Example 3, 2,4-Dioxo-1-[5-(4-diphenylmethoxy-1-piperidinyl)pentyl]-1,2,3,4-tetrahydroquinazoline]	173 to 174
Cl.O=c1[nH]c(=O)n(CCCCN2CCN(C(c3ccccc3)c3ccccc3)CC2)c2ccccc12	161 to 163
Nc1ccc2c(=O)[nH]c(=O)n(CCCCN3CCC(OC(c4ccccc4)c4ccccc4)CC3)c2c1 [Example 39, 7-Amino-2,4-dioxo-1-[4-(4-diphenylmethoxypiperidino)butyl]-1,2,3,4-tetrahydroquinazoline]	162 to 164
O=C(O)Cn1c(=O)n(CCCCN2CCC(OC(c3ccccc3)c3ccccc3)CC2)c(=O)c2ccccc21 [Example 72, 2,4-Dioxo-3-[4-(4-diphenylmethoxypiperidino)butyl]-1,2,3,4-tetrahydroquinazoline-1-acetic acid]	153 to 155
O=c1[nH]c2ccccc2c(=O)n1CCCCN1CCC(OC(c2ccccc2)c2ccccc2)CC1 [Example 80, 2,4-Dioxo-3-[4-(4-diphenylmethoxypiperidino)butyl]-1,2,3,4-tetrahydroquinazoline]	140 to 142
O=c1[nH]c(=O)n(CCCCN2CCC(OC(c3ccccc3)c3ccccc3)CC2)c2cc(Cl)ccc12 [Example 9, 7-Chloro-2,4-dioxo-1-[4-(4-diphenylmethoxypiperidino)butyl]-1,2,3,4-tetrahydroquinazoline]	169 to 171
COC(=O)Cn1c(=O)c2ccccc2n(CCCN2CCC(OC(c3ccccc3)c3ccccc3)CC2)c1=O [Example 14, Methyl 2,4-dioxo-1-[3-(4-diphenylmethoxypiperidino)propyl]-1,2,3,4-tetrahydroquinazoline-3-acetate]	109 to 110
CS(=O)(=O)Nc1ccc2c(c1)c(=O)[nH]c(=O)n2CCCCN1CCC(OC(c2ccccc2)c2ccccc2)CC1.Cl	225 to 227
CN(C)c1ccc2c(c1)c(=O)[nH]c(=O)n2CCCCN1CCC(OC(c2ccccc2)c2ccccc2)CC1 [Example 42, 6-Dimethylamino-2,4-dioxo-1-[4-(4-diphenylmethoxypiperidino)butyl]-1,2,3,4-tetrahydroquinazoline]	165 to 167
O=C(O)CC(=O)Nc1ccc2c(c1)c(=O)[nH]c(=O)n2CCCCN1CCC(OC(c2ccccc2)c2ccccc2)CC1 [Example 48, [2,4-Dioxo-1-[4-(4-diphenylmethoxypiperidino)butyl]-1,2,3,4-tetrahydro-6-quinazolinyl]carbamoylacetic acid]	166 to 168
O=C(O)CCn1c(=O)n(CCCCN2CCC(OC(c3ccccc3)c3ccccc3)CC2)c(=O)c2ccccc21 [Example 76, 2,4-Dioxo-3-[4-(4-diphenylmethoxypiperidino)butyl]-1,2,3,4-tetrahydroquinazoline-1-propionic acid]	110 to 112
Cl.O=c1[nH]c(=O)n(CCCCN2CCC(OC(c3ccccc3)c3ccccc3)CC2)c2ncccc12	121 to 123
O=C(O)Cn1c(=O)c2ccccc2n(CCCN2CCC(OC(c3ccccc3)c3ccccc3)CC2)c1=O [Example 49, 2,4-Dioxo-1-[3-(4-diphenylmethoxypiperidino)propyl]-1,2,3,4-tetrahydroquinazoline-3-acetic acid]	170 to 172
Cl.O=c1[nH]c(=O)n(CCCCN2CCC(c3c[nH]c4ccccc34)CC2)c2ccccc12	250 to 252
O=C(O)CCn1c(=O)c2ccccc2n(CCCN2CCC(OC(c3ccccc3)c3ccccc3)CC2)c1=O [Example 51, 2,4-Dioxo-1-[3-(4-diphenylmethoxypiperidino)propyl]-1,2,3,4-tetrahydroquinazoline-3-propionic acid]	150 to 151
O=C(O)c1ccc2c(c1)c(=O)[nH]c(=O)n2CCCCN1CCC(OC(c2ccccc2)c2ccccc2)CC1 [Example 89, 2,4-Dioxo-1-[4-(4-diphenylmethoxypiperidino)butyl]-1,2,3,4-tetrahydroquinazoline-6-carboxylic acid]	161 to 163
N#Cn1c(=O)c2ccccc2n(CCCCN2CCC(OC(c3ccccc3)c3ccccc3)CC2)c1=O [Example 92, 2,4-Dioxo-1-[4-(4-diphenylmethoxypiperidino)butyl]-1,2,3,4-tetrahydroquinazoline-3-carbonitrile]	106 to 107
O=C(O)CCn1c(=O)n(CCCN2CCC(OC(c3ccccc3)c3ccccc3)CC2)c(=O)c2ccccc21 [Example 75, 2,4-Dioxo-3-[3-(4-diphenylmethoxypiperidino)propyl]-1,2,3,4-tetrahydroquinazoline-1-propionic acid]	237 to 238
O=C(O)Cn1c(=O)c2ccccc2n(CCCCN2CCC(OC(c3ccccc3)c3ccccc3)CC2)c1=O [Example 50, 2,4-Dioxo-1-[4-(4-diphenylmethoxypiperidino)butyl]-1,2,3,4-tetrahydroquinazoline-3-acetic acid]	184 to 186
O=c1[nH]c(=O)n(CCCCN2CCC(OC(c3ccccc3)c3ccccc3)CC2)c2cc([N+](=O)[O-])ccc12 [Example 11, 2,4-Dioxo-1-[4-(4-diphenylmethoxypiperidino)butyl]-7-nitro-1,2,3,4-tetrahydroquinazoline]	214 to 215
O=c1[nH]c(=O)n(CCCN2CCC(OC(c3ccccc3)c3ccccc3)CC2)c2ccccc12 [Example 1, 2,4-Dioxo-1-[3-(4-diphenylmethoxy-1-piperidinyl)propyl]-1,2,3,4-tetrahydroquinazoline]	149 to 151
COC(=O)Cn1c(=O)c2ccccc2n(CCCCN2CCC(OC(c3ccccc3)c3ccccc3)CC2)c1=O [Example 15, Methyl 2,4-dioxo-1-[4-(4-diphenylmethoxypiperidino)butyl]-1,2,3,4-tetrahydroquinazoline-3-acetate]	91 to 93
